# Values quoted from earlier work in publication PMC3962266 (Journal of medicinal chemistry, 2013).
# Legend:
# [1] = not given; remark: listed apart in the source
# [2] = not given; remark: listed apart in the source
structure (smiles),measurement,setting,value
CCCCNc1ncc2c(-c3ccc(S(=O)(=O)N4CCOCC4)cc3)nn(C3CCC(O)CC3)c2n1 (stereo not shown) [UNC1062],Solubility,,low solubility
same,Pharmacokinetic (PK) properties,[1],poor pharmacokinetic (PK) properties
CC(=O)Oc1ccccc1C(=O)O [aspirin],Baseline major bleeding risk (gastrointestinal or intracranial),[2],1–4%
COC(=O)[C@H](c1ccccc1Cl)N1CCc2sccc2C1 [clopidogrel],Further increase of bleeding risk on addition as combination therapy,[2]; added to aspirin,1%
